{
  "source": "patent US12128260B2",
  "about": "“Pathogen capture using active surface modification” (priority 2020, dated 2024)",
  "key": {"[1]": {"molecular_target": "SARS-CoV-2 spike protein (Severe acute respiratory syndrome coronavirus 2, UniProt P0DTC2)", "type": "binding"}, "[2]": {"tested_on": "IgG", "assay": "Model protein (IgG) capture on nanocoated facemask pieces, Gel-Code protein staining dye", "type": "binding", "conditions": "FIG. 7, IgG incubated 30 minutes, PBS wash, colour change, relative to uncoated facemask", "excerpt": "FIG. 7 depicts the relative binding of a model protein to pieces of facemasks coated with a different one of three bifunctional silane chemicals as well as to uncoated had hydrophobic controls. With reference to FIG. 7, pairs of pieces of standard facemasks (Machimpex, catalogue #1005-544-988) were nanocoated with one of the various chemicals. One pair, shown at the far left, was left uncoated. […] IgG was used as a model for protein capture as it behaved similar to the full-length coronavirus spike protein in plate-binding assays and is likely to have similar activity to that of bacterial coat proteins. The IgG was applied to the facemask fabric and incubated for 30 minutes prior to washing in phosphate buffered saline (PBS). Detection of the captured protein after washing was performed by applying 200 μl Gel-Code protein staining dye (Thermo Fisher Scientific, catalogue #24590) directly to the materials and incubating for one hour. Color change indicating protein capture was documented by photography."}, "[3]": {"tested_on": "Human IgG", "conditions": "FIGS. 4A and 4B; all concentration levels that included IgG, starting at 1 μg/ml; compared with high-protein-binding ELISA plates"}},
  "data": [
    {"smiles": "CCO[Si](CCCNC(=O)/C=C\\C(=O)O)(OCC)OCC", "note": "[CCH8845, triethoxysilylpropylmaleamic acid]", "values": [
      {"measurement": "overall capability of binding the coronavirus spike protein", "setting": "[1]", "result": "bind about equally well as CCH9021, CCH4502, and CCH1053"}
    ]},
    {"smiles": "CO[Si](C)(CCCNCCCN(C)C)OC", "note": "[CCH699020, 3-(N,N-dimethylaminopropyl)aminopropylmethyldimethoxysilane]", "values": [
      {"measurement": "relative binding of SARS-CoV-2 spike glycoprotein applied at different concentrations", "setting": "[1]", "result": "control high-protein-binding ELISA plate significantly outperformed the chemical coating"}
    ]},
    {"smiles": "CCO[Si](CCCNCCN)(OCC)OCC", "note": "[CCH9021, N-(2-aminoethyl)-3-aminopropyltriethoxysilane]", "values": [
      {"measurement": "capture of model protein (IgG) onto facemask", "setting": "[2]", "result": "efficiently captured the protein onto facemask relative to the uncoated facemask"},
      {"measurement": "capture of model protein (IgG) onto facemask", "setting": "[2]; listed as NCT9021", "result": "appears to have captured more efficiently"},
      {"measurement": "relative binding of SARS-CoV-2 spike glycoprotein", "setting": "[1]", "result": "slightly underperformed the high-protein-binding ELISA plate"}
    ]},
    {"smiles": "CCO[Si](CCCNCCN)(OCC)OCC", "note": "[N-(2-aminoethyl)-3-aminopropyltriethoxysilane]", "values": [
      {"measurement": "relative binding of IgG applied at different concentrations", "setting": "[3]", "result": "significantly outperformed the high-protein-binding ELISA plates"}
    ]}
  ]
}
